Target: human LPA1 receptor (Homo sapiens (Human), UniProt Q92633)
Assay: Beta-arrestin recruitment assay to determine IC50 values for human LPAR1
Type: cell-based
Conditions: antagonist mode, Tango EDG2-bla U2OS cells, LPA 18:1 500 nM final
Outline: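 Tango EDG2-bla U2OS cells: LPA-driven beta-arrestin/TEV protease recruitment releases Gal4-VP16, inducing beta-lactamase reporter read with live-cell substrate. Cells seeded 20 h at 37 °C beforehand. IC50 is antagonist concentration inhibiting 50% of maximal response.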

Sequence of human LPA1 receptor (Q92633 whole entry): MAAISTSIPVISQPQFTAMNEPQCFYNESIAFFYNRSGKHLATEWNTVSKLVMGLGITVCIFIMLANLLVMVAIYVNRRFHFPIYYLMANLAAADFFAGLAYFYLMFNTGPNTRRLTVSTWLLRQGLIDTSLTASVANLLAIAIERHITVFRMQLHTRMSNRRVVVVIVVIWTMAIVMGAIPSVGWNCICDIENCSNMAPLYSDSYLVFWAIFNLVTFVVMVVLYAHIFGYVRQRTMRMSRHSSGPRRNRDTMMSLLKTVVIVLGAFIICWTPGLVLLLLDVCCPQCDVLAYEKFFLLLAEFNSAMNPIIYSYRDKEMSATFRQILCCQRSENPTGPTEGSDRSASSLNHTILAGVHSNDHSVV

Work on Cc1ccc(NC(=O)C2(c3ccccc3C(C)C)CN(CC3(CO)COC3)C2)c(OC(F)F)n1 [Ex 11-89, N-(2-(difluoromethoxy)-6-methylpyridin-3-yl)-1-((3-(hydroxymethyl)oxetan-3-yl)methyl)-3-(2-isopropylphenyl)azetidine-3-carboxamide] yielded an IC50 of 0.073 µM.
Cc1ccc(NC(=O)C2(c3ccccc3C(C)C)CN(Cc3cnc(C(=O)O)cn3)C2)c(OC(F)F)n1 [Ex 11-55, 5-((3-((2-(difluoromethoxy)-6-methylpyridin-3-yl)-carbamoyl)3-(2-isopropylphenyl)azetidin-1-yl)methyl)pyrazine-2-carboxylic acid] gave an IC50 of 0.142 µM.
COC(=O)c1ccc(CN2CC(C(=O)Nc3ccc(C)nc3OC(F)F)(c3ccccc3C(C)C)C2)o1 [Ex 11-56, methyl 5-((3-((2-(difluoromethoxy)-6-methylpyridin-3-yl)carbamoyl)-3-(2-isopropylphenyl)azetidin-1-yl)methyl)furan-2-carboxylate] showed an IC50 of 0.064 µM.
Work on Cc1ccc(NC(=O)C2(c3ccccc3C(C)C)CN(CCCC(C)(C)N)C2)c(OC(F)F)n1 [Ex 11-94, 1-(4-amino-4-methylpentyl)-N-(2-(difluoromethoxy)-6-methylpyridin-3-yl)-3-(2-isopropylphenyl)azetidine-3-carboxamide] yielded an IC50 of 0.064 µM.
With Cc1ccc(NC(=O)C2(c3ccccc3C(C)C)CN(C(=O)C[C@@H](O)C(=O)O)C2)c(OC(F)F)n1 [Ex 12-35, (R)-4-(3-((2-(difluoromethoxy)-6-methylpyridin-3-yl)carbamoyl)-3-(2-isopropylphenyl)azetidin-1-yl)-2-hydroxy-4-oxobutanoic acid] the IC50 was 0.041 µM.
Compound CCOc1ccc(NC(=O)C2(c3ccccc3C(C)C)CN(S(N)(=O)=O)C2)c(OC)n1 [Ex 15-8, N-(6-ethoxy-2-methoxypyridin-3-yl)-3-(2-isopropylphenyl)-1-sulfamoylazetidine-3-carboxamide] has an IC50 of 0.004 µM.
In the case of CCOC(=O)c1coc(N2CC(C(=O)Nc3ccc(C)nc3OC(F)F)(c3ccccc3C(C)C)C2)n1 [Ex 18-27, ethyl 2-(3-((2-(difluoromethoxy)-6-methylpyridin-3-yl)carbamoyl)-3-(2-isopropylphenyl)azetidin-1-yl)oxazole-4-carboxylate], the IC50 is reported as 0.01 µM.
In the case of COc1cnc(NC(=O)C2(c3ccccc3C(C)C)CNC2)c(OC)c1 [Ex 75, N-(3,5-dimethoxypyridin-2-yl)-3-(2-isopropylphenyl)azetidine-3-carboxamide], the IC50 is reported as 4.38 µM.
COC(=O)[C@H]1C[C@H]1C(=O)N1CC(C(=O)Nc2ccc(C)nc2OC(F)F)(c2ccccc2C(C)C)C1 [Ex 12-94, methyl (1S,2R)-2-(3-((2-(difluoromethoxy)-6-methylpyridin-3-yl)carbamoyl)-3-(2-isopropylphenyl)azetidine-1-carbonyl)cyclopropane-1-carboxylate] gave an IC50 of 0.051 µM.
With Cc1ccc(NC(=O)C2(c3ccccc3C(C)C)CN(C(=O)CCn3cnnc3)C2)c(OC(F)F)n1 [Ex 12-28, 1-(3-(4H-1,2,4-triazol-4-yl)propanoyl)-N-(2-(difluoromethoxy)-6-methylpyridin-3-yl)-3-(2-isopropylphenyl)azetidine-3-carboxamide] the IC50 was 0.222 µM.
In the case of Cc1ccc(NC(=O)C2(c3ccccc3C(C)C)CCN(C(=O)NCc3c[nH]cn3)CC2)c(OC(F)F)n1 [Ex 17-3, N1-((1H-imidazol-4-yl)methyl)-N4-(2-(difluoromethoxy)-6-methylpyridin-3-yl)-4-(2-isopropylphenyl)piperidine-1,4-carboxamide], the IC50 is reported as 0.008 µM.
In the case of COC(=O)CCS(=O)(=O)N1CCC(C(=O)Nc2ccc(C)nc2OC(F)F)(c2ccccc2C(C)C)CC1 [Ex 13-6, methyl 3-((4-((2-(difluoromethoxy)-6-methylpyridin-3-yl)carbamoyl)-4-(2-isopropylphenyl)piperidin-1-yl)sulfonyl)propanoate], the IC50 is reported as 0.026 µM.
“N-(6-ethoxy-2-methoxypyridin-3-yl)-3-(2-isopropylphenyl)azetidine-3-carboxamide [Ex 9]” gave an IC50 of 0.163 µM.
For CCOC(=O)CNCCN1CC(C(=O)Nc2ccc(C)nc2OC(F)F)(c2ccccc2C(C)C)C1 [Ex 11-79, Ethyl (2-(3-((2-(difluoromethoxy)-6-methylpyridin-3-yl)carbamoyl)-3-(2-isopropylphenyl)azetidin-1-yl)ethyl)glycinate], the IC50 was 0.019 µM.
Cc1ccc(NC(=O)C2(c3ccccc3C(C)C)CN(C(=O)CC3CCC(C(=O)O)CC3)C2)c(OC(F)F)n1 (stereo not shown) [Ex 52, 4-(2-(3-((2-(difluoromethoxy)-6-methylpyridin-3-yl)carbamoyl)-3-(2-isopropylphenyl)azetidin-1-yl)-2-oxoethyl)cyclohexane-1-carboxylic acid] showed an IC50 of 0.051 µM.
COC(=O)C(C)(C)CCN1CC(C(=O)Nc2ccc(C)nc2OC(F)F)(c2ccccc2C(C)C)C1 [Ex 11-30, methyl 4-(3-((2-(difluoromethoxy)-6-methylpyridin-3-yl)carbamoyl)-3-(2-isopropylphenyl)azetidin-1-yl)-2,2-dimethylbutanoate] gave an IC50 of 0.098 µM.
Work on Cc1ccc(NC(=O)C2(c3ccccc3C(C)C)CN(C(=O)C3(C(=O)O)CNC3)C2)c(OC(F)F)n1 [Ex 12-114, 3-(3-((2-(difluoromethoxy)-6-methylpyridin-3-yl)carbamoyl)-3-(2-isopropylphenyl)azetidine-1-carbonyl)azetidine-3-carboxylic acid] yielded an IC50 of 2.68 µM.
Work on Cc1ccc(NC(=O)C2(c3ccccc3C(C)C)CN(CC(C)N)C2)c(OC(F)F)n1 (stereo not shown) [Ex 11-11, 1-(2-aminopropyl)-N-(2-(difluoromethoxy)-6-methylpyridin-3-yl)-3-(2-isopropylphenyl)azetidine-3-carboxamide] yielded an IC50 of 0.005 µM.
CC(C)c1ccccc1C1(C(=O)Nc2ncc(Br)cc2OC(F)F)CN(S(N)(=O)=O)C1 [Ex 81-4, N-(5-bromo-3-(difluoromethoxy)pyridin-2-yl)-3-(2-isopropylphenyl)-1-sulfamoylazetidine-3-carboxamide] gave an IC50 of 0.002 µM.
Cc1ccc(NC(=O)C2(c3ccccc3C(C)C)CN(CCCC(C)(C)C(=O)O)C2)c(OC(F)F)n1 [Ex 11-69, 5-(3-((2-(difluoromethoxy)-6-methylpyridin-3-yl)carbamoyl)-3-(2-isopropylphenyl)azetidin-1-yl)-2,2-dimethylpentanoic acid] showed an IC50 of 0.015 µM.
For Cc1ccc(NC(=O)C2(c3ccccc3C(C)C)CN(C(=O)[C@H]3CNCCO3)C2)c(OC(F)F)n1 [Ex 12-42, (R)-N-(2-(difluoromethoxy)-6-methylpyridin-3-yl)-3-(2-isopropylphenyl)-1-(morpholine-2-carbonyl)azetidine-3-carboxamide], the IC50 was 0.071 µM.
Compound Cc1ccc(NC(=O)C2(c3ccccc3C(C)C)CN(C(=O)[C@H](C)CC(=O)O)C2)c(OC(F)F)n1 [Ex 12-90, (R)-4-(3-((2-(difluoromethoxy)-6-methylpyridin-3-yl)carbamoyl)-3-(2-isopropylphenyl)azetidin-1-yl)-3-methyl-4-oxobutanoic acid] has an IC50 of 0.014 µM.
Cc1ccc(NC(=O)C2(c3ccccc3C(C)C)CN(c3cnc(C(=O)O)cn3)C2)c(OC(F)F)n1 [Ex 18-9, 5-(3-((2-(difluoromethoxy)-6-methylpyridin-3-yl)carbamoyl)-3-(2-isopropylphenyl)azetidin-1-yl)pyrazine-2-carboxylic acid] gave an IC50 of 0.011 µM.
For Cc1ccc(NC(=O)C2(c3ccccc3C(C)C)CN(C(=O)C3C[C@H](O)CN3)C2)c(OC(F)F)n1 (stereo partly drawn) [Ex 12-41, N-(2-(difluoromethoxy)-6-methylpyridin-3-yl)-1-((4S)-4-hydroxypyrrolidine-2-carbonyl)-3-(2-isopropylphenyl)azetidine-3-carboxamide], the IC50 was 0.069 µM.
Compound CC(C)c1ccccc1C1(C(=O)Nc2ncc(Br)cc2OC(F)F)CN(C(=O)NC2CC2)C1 [Ex 82-2, N3-(5-bromo-3-(difluoromethoxy)pyridin-2-yl)-N1-cyclopropyl-3-(2-isopropylphenyl)azetidine-1,3-dicarboxamide] has an IC50 of 0.003 µM.
Cc1ccc(NC(=O)C2(c3ccccc3C(C)C)CN(C(=O)CS(=O)(=O)O)C2)c(OC(F)F)n1 [Ex 12-3, 2-(3-((2-(difluoromethoxy)-6-methylpyridin-3-yl)carbamoyl)-3-(2-isopropylphenyl)azetidin-1-yl)-2-oxoethane-1-sulfonic acid] gave an IC50 of 0.016 µM.
With Cc1ccc(NC(=O)C2(c3ccccc3C(C)C)CN(C(=O)CNC(C)(C)CC(=O)O)C2)c(OC(F)F)n1 [Ex 47, 3-((2-(3-((2-(difluoromethoxy)-6-methylpyridin-3-yl)carbamoyl)-3-(2-isopropylphenyl)azetidin-1-yl)-2-oxoethyl)amino)-3-methylbutanoic acid] the IC50 was 0.095 µM.
Work on COC(=O)C(C)(C)CCNC(=O)N1CC(C(=O)Nc2ccc(C)nc2OC(F)F)(c2ccccc2C(C)C)C1 [Ex 17-18, methyl 4-(3-((2-(difluoromethoxy)-6-methylpyridin-3-yl)carbamoyl)-3-(2-isopropylphenyl)azetidine-1-carboxamido)-2,2-dimethylbutanoate] yielded an IC50 of 0.006 µM.
With Cc1ccc(NC(=O)C2(c3ccccc3C(C)C)CN(C(=O)CCOCCOCCO)C2)c(OC(F)F)n1 [Ex 12-51, N-(2-(difluoromethoxy)-6-methylpyridin-3-yl)-1-(3-(2-(2-hydroxyethoxy)ethoxy)propanoyl)-3-(2-isopropylphenyl)azetidine-3-carboxamide] the IC50 was 0.36 µM.
Cc1ccc(NC(=O)C2(c3ccccc3C(C)C)CN(C(=O)C3(CC(=O)O)COC3)C2)c(OC(F)F)n1 [Ex 12-99, 2-(3-(3-((2-(difluoromethoxy)-6-methylpyridin-3-yl)carbamoyl)-3-(2-isopropylphenyl)azetidine-1-carbonyl)oxetan-3-yl)acetic acid] showed an IC50 of 0.016 µM.
CCOC(=O)CN(C)CCN1CC(C(=O)Nc2ccc(C)nc2OC(F)F)(c2ccccc2C(C)C)C1 [Ex 11-81, Ethyl N-(2-(3-((2-(difluoromethoxy)-6-methylpyridin-3-yl)carbamoyl)-3-(2-isopropylphenyl)azetidin-1-yl)ethyl)-N-methylglycinate] was tested, and the IC50 was 0.088 µM.
